# Source: ChEMBL document CHEMBL3885861, “Open TG-GATES”
# Species on record: Rattus norvegicus
# Test: Open TG-GATES - Regimen: Daily Repeat
# Type: toxicity, organism-based, Sprague-Dawley
# Design: regimen Daily Repeat, gender Male, age 6 weeks
# Conditions: in vivo, po, 10 mg/kg, route gavage, dose level Middle; for APTT / Bas / Eos / Fbg / Hb / Ht / Lym / MCH / MCHC / MCV / Mono / Neu / PT / Plat / RBC / Ret / WBC: tissue Blood; for KIDNEY_L / KIDNEY_R / KIDNEY_TOTAL: tissue Kidney; for LIVER: tissue Liver; for A/G / ALP / ALT / AST / BUN / CRE / Ca / Cl / DBIL / GLC / IP / K / LDH / Na / PL / RALB / TBIL / TC / TG / TP / gamma-GTP: tissue Plasma
smiles,measurement,setting,value
Cn1cnc([N+](=O)[O-])c1Sc1ncnc2nc[nH]c12 [AZATHIOPRINE],TERMINAL_BW,"72 h, time 3 day",204.1 g
same,APTT,"72 h, time 3 day",20.4 s
same,Bas,"72 h, time 3 day",0%
same,Eos,"72 h, time 3 day",0.8%
same,Fbg,"72 h, time 3 day",324.8 mg/dL
same,Hb,"72 h, time 3 day",13.4 g/dL
same,Ht,"72 h, time 3 day",39.3%
same,Lym,"72 h, time 3 day",83.6%
same,MCH,"72 h, time 3 day",21.4 pg
same,MCHC,"72 h, time 3 day",33.9%
same,MCV,"72 h, time 3 day",62.9 fL
same,Mono,"72 h, time 3 day",2%
same,Neu,"72 h, time 3 day",12.4%
same,PT,"72 h, time 3 day",15.7 s
same,Plat,"72 h, time 3 day",125.8 x10_4/uL
same,RBC,"72 h, time 3 day",625.6 x10_4/ul
same,Ret,"72 h, time 3 day",5.2%
same,WBC,"72 h, time 3 day",72.4 x10_2/uL
same,KIDNEY_L,"72 h, time 3 day",0.9 g
same,KIDNEY_R,"72 h, time 3 day",0.9 g
same,KIDNEY_TOTAL,"72 h, time 3 day",1.9 g
same,LIVER,"72 h, time 3 day",9.8 g
same,A/G,"72 h, time 3 day",1.2
same,ALP,"72 h, time 3 day",1704 IU/L
same,ALT,"72 h, time 3 day",41.4 IU/L
same,AST,"72 h, time 3 day",73 IU/L
same,BUN,"72 h, time 3 day",16.2 mg/dL
same,CRE,"72 h, time 3 day",0.1 mg/dL
same,Ca,"72 h, time 3 day",11.2 mg/dL
same,Cl,"72 h, time 3 day",106.2 meq/L
same,DBIL,"72 h, time 3 day",0 mg/dL
same,GLC,"72 h, time 3 day",184.8 mg/dL
same,IP,"72 h, time 3 day",7.2 mg/dL
same,K,"72 h, time 3 day",4.2 meq/L
same,LDH,"72 h, time 3 day",196.8 IU/L
same,Na,"72 h, time 3 day",143 meq/L
same,PL,"72 h, time 3 day",148.2 mg/dL
same,RALB,"72 h, time 3 day",3.1 g/dL
same,TBIL,"72 h, time 3 day",0.014 mg/dL
same,TC,"72 h, time 3 day",77.4 mg/dL
same,TG,"72 h, time 3 day",85.2 mg/dL
same,TP,"72 h, time 3 day",5.7 g/dL
same,gamma-GTP,"72 h, time 3 day",1 IU/L
same,TERMINAL_BW,"[…], time 7 day",234.4 g
same,TERMINAL_BW,"[…], time 14 day",294.1 g
same,TERMINAL_BW,"[…], time 28 day",329.3 g
same,APTT,"[…], time 7 day",22.4 s
same,Bas,"[…], time 7 day",0%
same,Eos,"[…], time 7 day",1%
same,Fbg,"[…], time 7 day",325.8 mg/dL
same,Hb,"[…], time 7 day",13.7 g/dL
same,Ht,"[…], time 7 day",39%
same,Lym,"[…], time 7 day",83%
same,MCH,"[…], time 7 day",21.5 pg
same,MCHC,"[…], time 7 day",35.1%
same,MCV,"[…], time 7 day",61.5 fL
same,Mono,"[…], time 7 day",2.4%
same,Neu,"[…], time 7 day",12.4%
same,PT,"[…], time 7 day",15.4 s
same,Plat,"[…], time 7 day",143.7 x10_4/uL
same,RBC,"[…], time 7 day",635 x10_4/ul
same,Ret,"[…], time 7 day",6.2%
same,WBC,"[…], time 7 day",81.7 x10_2/uL
same,APTT,"[…], time 14 day",21.7 s
same,Bas,"[…], time 14 day",0%
same,Eos,"[…], time 14 day",0.6%
same,Fbg,"[…], time 14 day",333 mg/dL
same,Hb,"[…], time 14 day",14 g/dL
same,Ht,"[…], time 14 day",40.1%
same,Lym,"[…], time 14 day",81.4%
same,MCH,"[…], time 14 day",21.1 pg
same,MCHC,"[…], time 14 day",35%
same,MCV,"[…], time 14 day",60.3 fL
same,Mono,"[…], time 14 day",1.6%
same,Neu,"[…], time 14 day",14.8%
same,PT,"[…], time 14 day",15.6 s
same,Plat,"[…], time 14 day",116.8 x10_4/uL
same,RBC,"[…], time 14 day",664.6 x10_4/ul
same,Ret,"[…], time 14 day",4.2%
same,WBC,"[…], time 14 day",93.4 x10_2/uL
same,APTT,"[…], time 28 day",22.4 s
same,Bas,"[…], time 28 day",0%
same,Eos,"[…], time 28 day",1.4%
same,Fbg,"[…], time 28 day",347.6 mg/dL
same,Hb,"[…], time 28 day",11.8 g/dL
same,Ht,"[…], time 28 day",34.5%
same,Lym,"[…], time 28 day",74%
same,MCH,"[…], time 28 day",19.3 pg
same,MCHC,"[…], time 28 day",33.9%
same,MCV,"[…], time 28 day",56.9 fL
same,Mono,"[…], time 28 day",3.2%
same,Neu,"[…], time 28 day",19.4%
same,PT,"[…], time 28 day",16.5 s
same,Plat,"[…], time 28 day",95.9 x10_4/uL
same,RBC,"[…], time 28 day",615.2 x10_4/ul
same,Ret,"[…], time 28 day",2.4%
same,WBC,"[…], time 28 day",54.1 x10_2/uL
same,KIDNEY_L,"[…], time 7 day",1 g
same,KIDNEY_R,"[…], time 7 day",1 g
same,KIDNEY_TOTAL,"[…], time 7 day",2 g
same,KIDNEY_L,"[…], time 14 day",1.1 g
same,KIDNEY_R,"[…], time 14 day",1.2 g
same,KIDNEY_TOTAL,"[…], time 14 day",2.3 g
same,KIDNEY_L,"[…], time 28 day",1.3 g
same,KIDNEY_R,"[…], time 28 day",1.3 g
same,KIDNEY_TOTAL,"[…], time 28 day",2.6 g
same,LIVER,"[…], time 7 day",11.1 g
same,LIVER,"[…], time 14 day",13.4 g
same,LIVER,"[…], time 28 day",13.3 g
same,A/G,"[…], time 7 day",1.1
same,ALP,"[…], time 7 day",1444.2 IU/L
same,ALT,"[…], time 7 day",37.8 IU/L
same,AST,"[…], time 7 day",69.8 IU/L
same,BUN,"[…], time 7 day",18.2 mg/dL
same,CRE,"[…], time 7 day",0.1 mg/dL
same,Ca,"[…], time 7 day",10.7 mg/dL
same,Cl,"[…], time 7 day",105.8 meq/L
same,DBIL,"[…], time 7 day",0 mg/dL
same,GLC,"[…], time 7 day",193.2 mg/dL
same,IP,"[…], time 7 day",6.8 mg/dL
same,K,"[…], time 7 day",4.2 meq/L
same,LDH,"[…], time 7 day",265.2 IU/L
same,Na,"[…], time 7 day",142.8 meq/L
same,PL,"[…], time 7 day",166.4 mg/dL
same,RALB,"[…], time 7 day",3.1 g/dL
same,TBIL,"[…], time 7 day",0 mg/dL
same,TC,"[…], time 7 day",89.4 mg/dL
same,TG,"[…], time 7 day",104.6 mg/dL
same,TP,"[…], time 7 day",6 g/dL
same,gamma-GTP,"[…], time 7 day",1 IU/L
same,A/G,"[…], time 14 day",1.1
same,ALP,"[…], time 14 day",1327.6 IU/L
same,ALT,"[…], time 14 day",33.4 IU/L
same,AST,"[…], time 14 day",62.8 IU/L
same,BUN,"[…], time 14 day",17.8 mg/dL
same,CRE,"[…], time 14 day",0.2 mg/dL
same,Ca,"[…], time 14 day",11.3 mg/dL
same,Cl,"[…], time 14 day",105.2 meq/L
same,DBIL,"[…], time 14 day",0 mg/dL
same,GLC,"[…], time 14 day",200.2 mg/dL
same,IP,"[…], time 14 day",6.8 mg/dL
same,K,"[…], time 14 day",4 meq/L
same,LDH,"[…], time 14 day",161 IU/L
same,Na,"[…], time 14 day",143 meq/L
same,PL,"[…], time 14 day",174.4 mg/dL
same,RALB,"[…], time 14 day",3.2 g/dL
same,TBIL,"[…], time 14 day",0.006 mg/dL
same,TC,"[…], time 14 day",93.8 mg/dL
same,TG,"[…], time 14 day",93.4 mg/dL
same,TP,"[…], time 14 day",6.2 g/dL
same,gamma-GTP,"[…], time 14 day",1.8 IU/L
same,A/G,"[…], time 28 day",1.1
same,ALP,"[…], time 28 day",971.6 IU/L
same,ALT,"[…], time 28 day",82 IU/L
same,AST,"[…], time 28 day",182.8 IU/L
same,BUN,"[…], time 28 day",20.8 mg/dL
same,CRE,"[…], time 28 day",0.2 mg/dL
same,Ca,"[…], time 28 day",10.7 mg/dL
same,Cl,"[…], time 28 day",107 meq/L
same,DBIL,"[…], time 28 day",0.034 mg/dL
same,GLC,"[…], time 28 day",169.4 mg/dL
same,IP,"[…], time 28 day",6.3 mg/dL
same,K,"[…], time 28 day",3.9 meq/L
same,LDH,"[…], time 28 day",602 IU/L
same,Na,"[…], time 28 day",141.4 meq/L
same,PL,"[…], time 28 day",169.6 mg/dL
same,RALB,"[…], time 28 day",3.3 g/dL
same,TBIL,"[…], time 28 day",0.066 mg/dL
same,TC,"[…], time 28 day",102 mg/dL
same,TG,"[…], time 28 day",63.4 mg/dL
same,TP,"[…], time 28 day",6.4 g/dL
same,gamma-GTP,"[…], time 28 day",1.2 IU/L
